Test results reported in ChEMBL document CHEMBL3045621, “Synthesis and Structure-activity Relationships of Herbicidal Thiophene Sulfonylurea Compounds” (J Pestic Sci, 1997).

What was measured:
Echinochloa oryzicola = assay: Herbicidal activity against Echinochloa oryzicola assessed as dose required to cause sufficient herbicidal activity; type: functional
[1] = system: Schoenoplectiella juncoides; assay: Herbicidal activity against Schoenoplectiella juncoides assessed as dose required to cause sufficient herbicidal activity after 5 to 7 days; type: functional
Sagittaria pygmaea = assay: Herbicidal activity against Sagittaria pygmaea assessed as dose required to cause sufficient herbicidal activity after 5 to 7 days; type: functional
Oryza sativa = assay: Toxicity in two leaf stage of Oryza sativa var. Nihonbare (rice) assessed as dose required to selectivity to Oryza sativa; type: organism-based; conditions: in vivo

`C#CCOCc1ccsc1S(=O)(=O)NC(=O)Nc1nc(OC)cc(OC)n1` showed an MED (Echinochloa oryzicola) of 0.625 g/acre, an MED [1] of 0.0781 g/acre and an MED (Sagittaria pygmaea) of 0.0391 g/acre. It also gave an MED (Oryza sativa) of 0.156 g/acre.

`COc1cc(OC)nc(NC(=O)NS(=O)(=O)c2sccc2COCC(Cl)(Cl)Cl)n1` showed an MED (Echinochloa oryzicola) of 5 g/acre, an MED [1] of 2.5 g/acre and an MED (Sagittaria pygmaea) of 2.5 g/acre. For the same compound, the MED (Oryza sativa) was 1.25 g/acre.

With `COc1cc(OC)nc(NC(=O)NS(=O)(=O)c2sccc2COCC2CCCO2)n1` (stereo unspecified) the MED (Echinochloa oryzicola) was 5 g/acre, the MED [1] was 5 g/acre and the MED (Sagittaria pygmaea) was 10 g/acre. The MED (Oryza sativa) was 0.625 g/acre.

Compound `CCN(C)Cc1ccsc1S(=O)(=O)NC(=O)Nc1nc(OC)cc(OC)n1` has an MED (Echinochloa oryzicola) of 20 g/acre, an MED [1] of 10 g/acre and an MED (Sagittaria pygmaea) of 5 g/acre. The MED (Oryza sativa) was 20 g/acre.

`COC(=O)NCc1ccsc1S(=O)(=O)NC(=O)Nc1nc(OC)cc(OC)n1` gave an MED (Echinochloa oryzicola) of 20 g/acre, an MED [1] of 1.25 g/acre and an MED (Sagittaria pygmaea) of 0.313 g/acre. It also gave an MED (Oryza sativa) of 2.5 g/acre.

`CNC(=O)NCc1ccsc1S(=O)(=O)NC(=O)Nc1nc(OC)cc(OC)n1` gave an MED (Echinochloa oryzicola) of 10 g/acre, an MED [1] of 20 g/acre and an MED (Sagittaria pygmaea) of 10 g/acre. For the same compound, the MED (Oryza sativa) was 2.5 g/acre.

Work on `COc1cc(OC)nc(NC(=O)NS(=O)(=O)c2sccc2CNC(=O)CCl)n1` yielded an MED (Echinochloa oryzicola) of 10 g/acre, an MED [1] of 10 g/acre and an MED (Sagittaria pygmaea) of 5 g/acre. For the same compound, the MED (Oryza sativa) was 5 g/acre.

With `COc1cc(OC)nc(NC(=O)NS(=O)(=O)c2sccc2Cn2cc(C(F)(F)F)ccc2=O)n1` the MED (Echinochloa oryzicola) was 40 g/acre, the MED [1] was 40 g/acre and the MED (Sagittaria pygmaea) was 40 g/acre. For the same compound, the MED (Oryza sativa) was 40 g/acre.

With `CCOCc1ccsc1S(=O)(=O)NC(=O)Nc1nc(OC)cc(OC)n1` the MED (Echinochloa oryzicola) was 0.313 g/acre, the MED [1] was 0.0391 g/acre and the MED (Sagittaria pygmaea) was 0.0391 g/acre. For the same compound, the MED (Oryza sativa) was 0.156 g/acre.

`C=CCOCc1ccsc1S(=O)(=O)NC(=O)Nc1nc(OC)cc(OC)n1` gave an MED (Echinochloa oryzicola) of 0.625 g/acre, an MED [1] of 0.156 g/acre and an MED (Sagittaria pygmaea) of 0.156 g/acre. It also gave an MED (Oryza sativa) of 0.313 g/acre.

Compound `COc1cc(OC)nc(NC(=O)NS(=O)(=O)c2sccc2CSC#N)n1` has an MED (Echinochloa oryzicola) of 1.25 g/acre, an MED [1] of 1.25 g/acre and an MED (Sagittaria pygmaea) of 0.625 g/acre. It also gave an MED (Oryza sativa) of 0.313 g/acre.

In the case of `COC(=O)Cc1ccsc1S(=O)(=O)NC(=O)Nc1nc(OC)cc(OC)n1`, the MED (Echinochloa oryzicola) is reported as 1.25 g/acre, the MED [1] is reported as 1.25 g/acre and the MED (Sagittaria pygmaea) is reported as 0.313 g/acre. For the same compound, the MED (Oryza sativa) was 0.156 g/acre.

`COc1cc(OC)nc(NC(=O)NS(=O)(=O)c2sccc2COc2ccccc2)n1` showed an MED (Echinochloa oryzicola) of 2.5 g/acre, an MED [1] of 1.25 g/acre and an MED (Sagittaria pygmaea) of 0.313 g/acre. For the same compound, the MED (Oryza sativa) was 0.625 g/acre.

With `COc1cc(OC)nc(NC(=O)NS(=O)(=O)c2sccc2COc2cccc(C(F)(F)F)c2)n1` the MED (Echinochloa oryzicola) was 5 g/acre, the MED [1] was 20 g/acre and the MED (Sagittaria pygmaea) was 20 g/acre. The MED (Oryza sativa) was 0.625 g/acre.
